Experimental data from patent publication US9572786B2, “Use of capsiate or dihydrocapsidate” (Catholic University Industry Academy Cooperation Foundation, priority 2007, dated 2017).

How the values were obtained:
[1] = tested on: hairless mouse; assay: Change of mouse skin tissue after UV, hematoxylin-eosin staining; assay type: in vivo; conditions: 4 times of UV irradiation every other day at 2.5 kJ/m^2
Protocol: When the skin is exposed to UV, erythema, or […] of the skin, occurs accompanied by edema, prior to a variety of cellular changes including inflammation, apoptosis, carcinogenesis, or the like [Tadashi Terui, Hachiro Tagami, Mediators of inflammation involved in UVB erythema, Journal of Dermatological Science 23 Suppl. 1 (2000) S1S5]. In order to investigate the effect of capsiate on erythema accompanied by UV-induced inflammatory response, experiment was carried out as follows using hairless mouse. Test groups were as follows: non-treated group—treated with acetone only without UV irradiation; test group A—treated with 200 μL of 1 mM capsiate dissolved in acetone without UV irradiation; UV group—treated with acetone and UV; test group B—treated with UV and 200 μL of 1 mM capsiate dissolved in acetone every 24 hours.
After 4 times of UV irradiation every other day at an intensity of 2.5 kJ/m^2, hematoxylin-eosin staining was carried out in order to observe the change of mouse skin tissue.

[2] = tested on: JNK; assay: MAPK signaling in mouse skin tissue, Western blotting: JNK; assay type: in vivo; conditions: hairless mouse; UV+CPT vs UV with acetone only
Protocol: In order to investigate the intracellular mechanism (signaling) related with the inhibition of COX-2 expression by capsiate, Western blotting was carried out for MAPK signaling-related proteins (ERK, p-ERK, p38, p-p38 and JNK, p-JNK) as in Example 2-2, using proteins isolated from the mouse skin tissue.

[3] = tested on: VEGF; assay: UV-induced VEGF expression, immunohistochemical staining; assay type: cell-based, human; conditions: HaCaT cells; 25 μM; UV 100 J/m^2; 24 hours
Protocol: First, the inhibition effect of capsiate on the expression of VEGF, the typical intracellular angiogenesis factor, was evaluated by immunohistochemical staining in order to investigate the inhibition effect of capsiate on angiogenesis.
HaCaT cells were placed on a 14 mm culture slide and cultured for 24 hours in DMEM containing 10% FBS. Subsequently, the cells were cultured for 24 hours in DMEM containing 1% FBS until starvation. Then, after treating with 25 μM capsiate for 30 minutes, followed by washing 3 times with PBS, UV was irradiated at an intensity of 100 J/m^2. Immediately after the UV irradiation, the cells were washed again with PBS and further cultured for 24 hours in DMEM containing 1% FBS, which was treated with capsiate at the same concentration as in the pre-treatment. The cells were fixed for 5 minutes using methanol and immunohistochemical staining was carried out in the same manner as in Example 2-3. For VEGF detection, rabbit anti-VEGF IgG antibody (Santa Cruz, USA) and Alexa 488-labeled anti-rabbit-IgG secondary antibody (Invitrogen, USA) were used.

[4] = tested on: HUVEC; assay: Tube formation on Matrigel; assay type: cell-based, human; conditions: 1, 5, 10, 25 μM, VEGF 10 ng/mL, 20 hours
Protocol: The effect of capsiate or dihydrocapsiate on tube formation was investigated according to a method published in the literature [Lee O H et al., 1999, Biochem. Biophys. Res. Commun. 264; 743-750].
In brief, 250 μL of growth factor-reduced Matrigel (10 mg protein/mL) was added to a 16 mm tissue culture well and subjected to polymerization at 37° C. for 30 minutes. HUVEC cultured for in M199 medium containing 1% FBS for 6 hours were treated with trypsin, collected, and resuspended in M199 medium containing 1% FBS. Capsiate or dihydrocapsiate at different concentrations (1 μM, 5 μM, 10 μM, 25 μM) were pre-treated at room temperature for 30 minutes. The cells were added to the Matrigel at a concentration of 1.8×10^5 cells/well and VEGF (10 ng/mL) was added. After culturing for 20 hours, photograph was taken (×200) and the area covered by the tube network was measured according to an optical imaging technique [scanned with Adobe Photoshop and measured with Image-Pro Plus (Media Cybermetics).

[5] = tested on: MMP-2; assay: MMP-2 mRNA in mouse skin, RT-PCR; assay type: in vivo; conditions: mouse tissue of Example 5; normalized using GAPDH
Protocol: mRNA was extracted from the mouse tissue of each test group of Example 5 and the level of expression thereof was evaluated in order to investigate the effect of capsiate on the expression of MMP-2 and MMP-9 induced by angiogenesis and immune response.
For RNA extraction from the tissue, each mouse tissue was subjected to skin biopsy, quickly frozen in liquid nitrogen and finely ground using a mortar. RNA was extracted from the mouse tissue using Trizol (Invitrogen, USA). PCR (PTC-225 Peltier thermal cycler, MJ Research, USA) was carried out using the RNA as template and using a commercial kit (reverse transcription system, Qiagen, USA). As a result, cDNA for each test group was prepared.
RT-PCR (Rotor Gene 6 series, Corbett Research, Australia) was carried out using thus prepared cDNA as template and using MMP-2 and MMP-9 primers (Qiagen, USA). The level of mRNA expression for MMP was normalized using GAPDH. The level of expression was compared with that of the non-treated group, which was treated with acetone only.

[6] = tested on: CD31; assay: Endothelial cell content in Matrigel plug, CD31 immunohistochemical staining; assay type: in vivo; conditions: C57/BL6 mouse Matrigel plug; 60 μg; 100 ng VEGF
Protocol: Immunohistochemical staining was carried out using CD31 in order to measure the endothelial cell content in the Matrigel plug.
The Matrigel plug was fixed using 2% formaldehyde and moisture was removed from the Matrigel using 15% sucrose and 30% sucrose based on the principle of osmosis. Then, the Matrigel plug was hardened at −70° C. The hardened Matrigel plug was sliced with a thickness of 8-12 μm, stained with CD31-antibody (PECAM-1 antibody, BD Biosciences, USA) and the level of expression by endothelial cells was observed under a microscope.

[7] = tested on: HUVEC; assay: [14C] sucrose permeability assay; assay type: cell-based, human; conditions: 5, 10, 25 μM, VEGF 50 ng/mL for 1 hour
Protocol: [^14C] sucrose permeability assay was carried out in order to identify the effect of capsiate or dihydrocapsiate on VEGF-induced endothelial permeability. In brief, HUVEC were placed on a transwell filter (Corning Costar). At confluence, the cells were cultured in M199 medium containing 1% FBS for 3 hours. After treating with capsiate or dihydrocapsiate at different concentrations (5 μM, 10 μM, 25 μM) for 30 minutes, the cells were treated with VEGF (50 ng/mL) for 1 hour. [^14C] sucrose (0.8 μCi/mL, 50 μL) was added to the upper compartment. 30 minutes later, the irradiation level was measured at the lower compartment using a scintillation counter (Wallac, PerkinElmer).

Compound | thickness of the epidermis (hematoxylin-eosin staining) [1] | JNK (phosphorylation) in mouse skin tissue [2] | UV-induced VEGF expression in the cytoplasm [3] | VEGF-induced formation of tube-like structures [4] | expression of MMP-2 (mRNA) in mouse skin tissue [5] | level of CD31 expression in Matrigel plug [6] | VEGF-increased permeability of endothelial cells [7]
COc1cc(COC(=O)CCCC/C=C/C(C)C)ccc1O [capsiate] | less thick | no significant difference | decreased | reduced | decreased | decreased to the extent comparable to the control group | decreased in a concentration-dependent manner
COc1cc(COC(=O)CCCCCCC(C)C)ccc1O [dihydrocapsiate] |  |  |  | reduced |  | decreased to the extent comparable to the control group | decreased in a concentration-dependent manner
